Reference: the supplement of paper PMC10307832

Assays:
Assay in all cases: relative viability (nuclei count vs DMSO), 5 days (fraction); higher = more cells survive
Bortezomib + OSI-027 = compound: CC(C)C[C@H](NC(=O)[C@H](Cc1ccccc1)NC(=O)c1cnccn1)B(O)O [Bortezomib] + COc1cccc2cc(-c3nc([C@H]4CC[C@H](C(=O)O)CC4)n4ncnc(N)c34)[nH]c12 [OSI-027] (partner 0.5 µM)
Method in brief: (§1)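 Relative viability divides the nuclei count in treated wells by that in vehicle wells. Lung cancer cell lines were seeded in 1536-well plates, dosed by pin tool the next day, and fixed and stained after 5 days in one step with final 0.05% Triton X-100, 1% formaldehyde and 1 ug/ml Hoechst. Dosing was a single drug or a fixed anchor-drug dose plus five library-drug doses (not always all listed) in √10 steps, and values are medians of duplicate plates imaged at 4×.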

[1] = compound: CC1=CC(=NN1)NC2=CC(=NC(=N2)/C=C/C3=CC=CC=C3)N4CCN(CC4)C + Cc1nc(Nc2ncc(C(=O)Nc3c(C)cccc3Cl)s2)cc(N2CCN(CCO)CC2)n1 [Dasatinib] (partner 0.075 µM)
Method in brief: as §1

[2] = compound: CC1=CC(=NN1)NC2=CC(=NC(=N2)/C=C/C3=CC=CC=C3)N4CCN(CC4)C + Nc1ncn([C@H]2C[C@H](O)[C@@H](CO)O2)c(=O)n1 [Decitabine] (partner 2 µM)
Method in brief: as §1

Obatoclax + Lapatinib = compound: COC1=CC(c2cc3ccccc3[nH]2)=N/C1=C\c1[nH]c(C)cc1C [Obatoclax] + CS(=O)(=O)CCNCc1ccc(-c2ccc3ncnc(Nc4ccc(OCc5cccc(F)c5)c(Cl)c4)c3c2)o1 [Lapatinib] (partner 2 µM)
Method in brief: as §1

Row | Cell Line | relative viability (Bortezomib + OSI-027; first compound 0.0002 µM) | relative viability (Bortezomib + OSI-027; first compound 0.000632 µM) | relative viability (Bortezomib + OSI-027; first compound 0.002 µM) | relative viability (Bortezomib + OSI-027; first compound 0.006325 µM) | relative viability (Bortezomib + OSI-027; first compound 0.02 µM) | relative viability ([1]; first compound 0.08 µM) | relative viability ([1]; first compound 0.253 µM) | relative viability ([1]; first compound 0.8 µM) | relative viability ([1]; first compound 2.53 µM) | relative viability ([1]; first compound 8 µM) | relative viability ([2]; first compound 0.08 µM) | relative viability ([2]; first compound 0.253 µM) | relative viability ([2]; first compound 0.8 µM) | relative viability ([2]; first compound 2.53 µM) | relative viability ([2]; first compound 8 µM) | relative viability (Obatoclax + Lapatinib; first compound 0.01 µM) | relative viability (Obatoclax + Lapatinib; first compound 0.03162 µM) | relative viability (Obatoclax + Lapatinib; first compound 0.1 µM) | relative viability (Obatoclax + Lapatinib; first compound 0.3162 µM) | relative viability (Obatoclax + Lapatinib; first compound 1 µM)
1 | NCI-H1355 | 0.386 | 0.356 | 0.44 | 0.22 | 0.163 | 0.723 | 0.727 | 0.684 | 0.248 | 0.121 | 0.305 | 0.346 | 0.351 | 0.356 | 0.201 | 1.06 | 0.886 | 0.838 | 0.862 | 0.921
2 | NCI-H1650 | 0.657 | 0.383 | 0.205 | 0.132 | 0.133 | 0.376 | 0.288 | 0.37 | 0.125 | 0.0926 | 0.333 | 0.454 | 0.389 | 0.297 | 0.113 | 0.849 | 0.657 | 0.698 | 0.418 | 0.302
3 | SW 1573 | 0.658 | 0.665 | 0.234 | 0.0635 | 0.0625 | 0.545 | 0.578 | 0.517 | 0.0958 | 0.0582 | 0.51 | 0.652 | 0.451 | 0.111 | 0.0605 | 1.06 | 1.16 | 1.31 | 1.13 | 0.559
4 | NCI-H661 | 0.659 | 0.658 | 0.688 | 0.33 | 0.183 | 0.824 | 0.808 | 0.853 | 0.243 | 0.237 | 0.551 | 0.529 | 0.524 | 0.302 | 0.249 | 0.421 | 0.47 | 0.539 | 0.474 | 0.611
5 | LU99A | 0.328 | 0.294 | 0.318 | 0.296 | 0.197 | 0.546 | 0.547 | 0.475 | 0.22 | 0.146 | 0.86 | 0.892 | 0.73 | 0.409 | 0.214 | 0.997 | 0.922 | 0.914 | 0.255 | 0.196
6 | LCLC-97TM1 | 0.475 | 0.336 | 0.583 | 0.233 | 0.129 | 0.867 | 0.724 | 0.885 | 0.622 | 0.552 | 0.176 | 0.22 | 0.244 | 0.182 | 0.0703 | 0.835 | 0.936 | 1.3 | 0.906 | 1.21
7 | LC-2-ad | 0.76 | 0.621 | 0.986 | 0.209 | 0.174 | 0.611 | 0.367 | 0.257 | 0.182 | 0.134 | 0.821 | 0.809 | 0.744 | 0.463 | 0.187 | 0.977 | 0.906 | 0.802 | 0.817 | 0.867
8 | NCI-H1395 | 0.574 | 0.529 | 0.639 | 0.353 | 0.271 | 0.424 | 0.409 | 0.4 | 0.344 | 0.28 | 0.7 | 0.771 | 0.708 | 0.514 | 0.291 | 1 | 0.943 | 0.79 | 1.09 | 0.592
9 | HOP-62 | 0.981 | 0.914 | 0.691 | 0.149 | 0.0803 | 0.605 | 0.72 | 0.772 | 0.355 | 0.197 | 0.203 | 0.191 | 0.212 | 0.197 | 0.166 | 0.963 | 0.909 | 0.976 | 1.04 | 1.05
10 | NCI-H2347 | 0.559 | 0.367 | 0.291 | 0.182 | 0.194 | 0.297 | 0.305 | 0.336 | 0.293 | 0.24 | 0.606 | 0.636 | 0.561 | 0.549 | 0.394 | 0.933 | 0.901 | 0.542 | 0.89 | 0.857
11 | NCI-H2087 | 0.667 | 0.401 | 0.224 | 0.0576 | 0.0622 | 0.934 | 0.601 | 0.627 | 0.182 | 0.0767 | 0.294 | 0.193 | 0.265 | 0.0921 | 0.0912 | 0.954 | 0.901 | 0.776 | 0.623 | 0.304
12 | EPLC-272H | 0.306 | 0.282 | 0.286 | 0.125 | 0.106 | 0.344 | 0.37 | 0.37 | 0.15 | 0.217 | 0.345 | 0.373 | 0.36 | 0.245 | 0.163 | 0.942 | 0.909 | 0.458 | 0.913 | 0.883
13 | LXF-289 | 0.773 | 0.754 | 0.803 | 0.0966 | 0.0619 | 0.258 | 0.26 | 0.187 | 0.0576 | 0.0234 | 0.371 | 0.383 | 0.324 | 0.288 | 0.248 | 0.893 | 0.903 | 0.934 | 0.832 | 0.624
14 | COR-L23 | 0.808 | 0.755 | 0.58 | 0.0553 | 0.0549 | 0.423 | 0.445 | 0.493 | 0.143 | 0.0623 | 0.511 | 0.451 | 0.392 | 0.125 | 0.113 | 0.954 | 0.957 | 0.714 | 0.254 | 0.199
15 | RERF-LC-KJ | 0.581 | 0.547 | 0.555 | 0.216 | 0.24 | 0.908 | 0.944 | 0.837 | 0.249 | 0.166 | 0.73 | 0.677 | 0.695 | 0.272 | 0.242 | 0.837 | 0.832 | 0.843 | 0.831 | 0.859
16 | NCI-H1755 | 0.706 | 0.568 | 0.68 | 0.27 | 0.228 | 0.465 | 0.466 | 0.425 | 0.253 | 0.14 | 0.707 | 0.65 | 0.733 | 0.663 | 0.428 | 1.04 | 1.03 | 0.81 | 1.07 | 0.995
17 | PC-14 | – | 0.765 | 0.714 | 0.033 | 0.0438 | 0.273 | 0.211 | 0.22 | 0.0234 | 0.0115 | 0.179 | 0.2 | 0.253 | 0.0601 | 0.0537 | 0.297 | 0.309 | 0.334 | 0.257 | 0.301
18 | NCI-H322M | 0.524 | – | 0.519 | 0.288 | 0.27 | 0.268 | 0.254 | 0.228 | 0.206 | 0.209 | 0.82 | 0.719 | 0.675 | 0.587 | 0.298 | 0.59 | 0.505 | 0.763 | 0.608 | 0.546
19 | NCI-H1666 | 0.802 | 0.869 | 0.945 | 0.43 | 0.324 | 0.787 | 0.874 | 0.778 | 0.659 | 0.294 | 0.574 | 0.682 | 0.749 | 0.719 | 0.584 | 0.868 | 0.682 | 0.469 | 0.273 | 0.291
20 | A-427 | 0.346 | 0.327 | 0.503 | 0.182 | 0.132 | 0.789 | 0.579 | 0.631 | 0.156 | 0.0981 | 0.603 | 0.582 | 0.568 | 0.489 | 0.213 | 1.08 | 0.884 | 1.03 | 1.09 | 0.992
21 | NCI-H358 | 0.849 | 0.547 | 0.703 | 0.0722 | 0.0716 | 0.171 | 0.23 | 0.173 | 0.08 | 0.0626 | 0.227 | 0.188 | 0.184 | 0.0835 | 0.0684 | 0.482 | 0.33 | 0.598 | 0.336 | 0.208
22 | NCI-H1651 | 0.661 | 0.641 | 0.416 | 0.109 | 0.11 | 0.423 | 0.398 | 0.407 | 0.171 | 0.116 | 0.356 | 0.597 | 0.613 | 0.322 | 0.132 | 0.645 | 0.764 | 0.744 | 0.664 | 0.341
23 | NCI-H520 | 0.193 | 0.235 | 0.196 | 0.272 | 0.223 | 0.202 | 0.194 | 0.166 | 0.143 | 0.118 | 0.382 | 0.542 | 0.501 | 0.191 | 0.14 | 0.805 | 0.821 | 0.879 | 0.493 | 0.22
24 | 201T | 0.694 | 0.75 | 0.753 | 0.551 | 0.138 | 0.586 | 0.546 | 0.541 | 0.435 | 0.208 | 0.834 | 0.864 | 0.831 | 0.785 | 0.471 | 1.08 | 0.789 | 0.94 | 1.01 | 0.97
25 | NCI-H460 | 0.561 | 0.478 | 0.64 | 0.126 | 0.021 | 0.545 | 0.546 | 0.487 | 0.144 | 0.0157 | 0.531 | 0.522 | 0.466 | 0.0534 | 0.0287 | 1 | 1.06 | 0.806 | 0.0507 | 0.0208
26 | NCI-H596 | 0.804 | 0.619 | 0.766 | 0.21 | 0.195 | 0.638 | 0.522 | 0.536 | 0.357 | 0.216 | 1.17 | 1.01 | 0.889 | 0.659 | 0.364 | 0.941 | 0.951 | 0.827 | 0.643 | 0.503
27 | HARA | 0.439 | 0.322 | 0.616 | 0.0379 | 0.0617 | 0.26 | 0.236 | 0.221 | 0.183 | 0.0802 | 0.529 | 0.641 | 0.569 | 0.192 | 0.132 | 0.816 | 0.752 | 0.667 | 0.69 | 0.297
